The source of these data is ChEMBL document CHEMBL1125971, “A concise synthesis of 12-(3'-hydroxy-n-propyl)-deoxoartemisinin” (Bioorg Med Chem Lett, 1991).

≈ marks a conversion by molar mass, not a printed value.

For the assay, the system named is Plasmodium falciparum. Put plainly: In vitro antimalarial activity against Plasmodium falciparum. The format is functional, organism-based.
In the case of `C[C@@H]1CCC2[C@@H](C)CO[C@@H]3O[C@]4(C)CCC1C23OO4` (some centres undefined), the half-maximal inhibitory concentration (IC50) (in general, the point on the concentration scale where inhibition reaches its midpoint) amounted to 0.15 ng/mL (≈ 0.559 nM).
To `C[C@@H]1CCC2[C@@H](C)CCO[C@@H]3O[C@]4(C)CCC1C23OO4` (some centres undefined) belongs 19 ng/mL (≈ 67.4 nM).
Next, `C[C@@H]1CCC2[C@@H](C)[C@H](CCCO)O[C@@H]3O[C@]4(C)CCC1C23OO4` (some centres undefined): 0.23 ng/mL (≈ 0.705 nM); `C[C@@H]1CCC2[C@@H](C)C(=O)O[C@@H]3O[C@]4(C)CCC1C23OO4` (some centres undefined): 1.21 ng/mL (≈ 4.29 nM).
